Measured values published in patent publication US6338963B1, “Use of carbon monoxide dependent guanylyl cyclase modifiers to stimulate neuritogenesis” (NeoTherapeutics, Inc., priority 1994, dated 2002).

Legend:
PC12 cells = experiment: Neuritogenesis in PC12 cells; assay type: cell-based, rat; conditions: NGF 40 ng/ml
Protocol: Much of the work performed in the characterization of the compounds of the present invention involved the use of PC12 cells. These cells are derived from a rat pheochromocytoma and when grown in the presence of NGF, extend neurites, cease cell division and assume many characteristics of sympathetic neurons. When cultured in the absence of nerve growth factor (NGF), few PC12 cells have neurites greater than one cell diameter. Addition of saturating concentrations of NGF for 48 hours stimulates neurite outgrowth in about 20-35% of the cells. Because they constitute a homogeneous population of neuronal-like cells, without contaminating astroglia type cells, it is possible to study the direct effects of the purine based compounds on neurite outgrowth in these cells.
Cells cultured in RPMI 1640 with 1.5% horse serum and 1.5% fetal bovine serum were re-plated onto poly-ornithine coated 24-well culture plates (2.5×10^4 cells per well). AIT-082 and NGF were added to the various cultures immediately upon plating. After 48 hours, medium was removed and the cells irnmediately fixed in 10% formalin and PBS for 10 minutes. Cells and neurites were counted within 2 days of fixation.
A neurite was defined as a process extending from the cell at least 1 cell body diameter in length and displaying a growth cone at its tip. For each treatment, 2 representative microscope fields were counted from each of 6 sister cultures receiving identical treatments. The total number of cells counted per well (approximately 100 cells) and the total number of cells containing neurites in each well were used to determine fraction of neurite-bearing cells. The mean values (±SEM) were then determined for each of the treatments. To facilitate comparison neurite outgrowth was expressed relative to the proportion of cells bearing neurites in the presence of NGF alone (NGF=100%). The effects of compounds with and without NGF were compared by analysis of variance (ANOVA) followed by Tukey's test for significance.
The results are shown in FIG. 3 where the curve represents different levels of AIT-082 plus saturating concentrations (40 ng/ml) NGF. The center horizontal line represents control values for cells cultured in the presence of 40 ng/ml NGF alone. Upper and lower horizontal lines are indicative of confidence limits of NGF alone as determined using standard statistical methods.

NGF mRNA = experiment: Northern/slot blot of neurotrophin mRNA from astrocytes: NGF; assay type: cell-based, NIH Swiss mice; set-up: key to NGF mRNA: The conditions which produced a detectable amount of each of the neurotrophin mRNAs are indicated by a “+”; a “++” indicating that at least twice the detectable amount was present; Those blots which were negative are indicated by a “−”; conditions: NGF 40 ng/ml, 24 hours
Protocol: (§1) Induction of neurotrophin mRNA was determined by northern blot analysis of astrocytes cultured with AIT-082, NGF, or both. The cells were harvested and RNA extracted at 24 hours after treatment.
(§2) More particularly, astrocytes from the cerebral cortex of NIH Swiss mice (Harlan) were isolated. Briefly, newborn pups (0-24 hours) were decapitated. Their brains were removed under aseptic conditions and were placed in modified Dulbecco's medium (DMEM) containing 20% heat-inactivated horse serum (Hyclone) (“complete medium”). The neopallium was then dissected from each cerebral hemisphere and minced into 1 mm cubes.
(§3) The astrocytes were then isolated by mechanical dissociation. The cubes were vortexed at maximum speed for one minute. The cell suspension was then passed first through 75 mm Nitex then through 10 mm Nitex. The resulting cell suspension was diluted in complete medium to a final concentration of one brain per 10 ml of complete medium. Ten milliliters of the diluted cell suspension was added to each 100 mm Falcon tissue culture plate (Fisher). After 3 days the medium was replaced with 10 ml fresh complete medium and subsequently was replaced twice weekly with DMEM containing 10% heat inactivated horse serum (“growth medium”). After two weeks in culture the astrocytes formed a confluent monolayer.
(§4) For RNA extraction, astrocytes were trypsinized. The astrocytes were then replated onto 100 mm PORN coated plates at a cell density of 10^6 cells per plate (10 ml growth medium). After 2 hrs PBS, guanosine (Guo), or GTP at 10 mM were added to the appropriate plates. Total RNA was harvested from 1.5×10^7 cells for each treatment, 4 and 24 hrs after treatment using TRIzol reagent and supplier protocol (GIBCO BRL/Life Technologies, Inc.). For slot blots, total RNA was bound to Hybond-N filters (Amersham/United States Biochemicals) as described in Transfer and Immobilization of Nucleic Acids and Proteins to S & S Solid Supports (S and S Protocols: Schleicher & Schuell, New Hampshire, USA). Northern blots were also performed using […] total RNA from each sample. These were electrophoresed in 1% agarose gels containing formaldehyde and blotted onto Hybond-N filters according to S and S protocols.
(§5) The blots were probed with ^32P-labeled cDNA (NGF, NT-3 and BDNF probes) or oligonucleotide probe (FGF-2) by hybridization in Piperazine-N,N′-bis-(2-ethanesulfonic acid) (PIPES) buffer (50 mM PIPES, pH 6.8; 50 mM NaH2PO4; 0.1 M NaCl; 5% SDS and 1 mM EDTA) overnight at 50° C. […] Various concentrations ([…] of total RNA), as determined by spectrophotometry, of each sample were blotted and probed so that quantification could be done after insuring a linear film response. Quantification was performed using MCID Image Analysis (St. Catherine's, Ontario, Canada). […]

FGF-2 mRNA = experiment: Northern/slot blot of neurotrophin mRNA from astrocytes: FGF-2; assay type: cell-based, NIH Swiss mice; set-up: key to FGF-2 mRNA: The conditions which produced a detectable amount of each of the neurotrophin mRNAs are indicated by a “+”; a “++” indicating that at least twice the detectable amount was present; Those blots which were negative are indicated by a “−”; conditions: NGF 40 ng/ml, 24 hours
Protocol: as §1, §2, §3, §4, §5

BDNF mRNA = experiment: Northern blot of neurotrophin mRNA from astrocytes: BDNF; assay type: cell-based, NIH Swiss mice; set-up: key: The conditions which produced a detectable amount of each of the neurotrophin mRNAs are indicated by a “+”; a “++” indicating that at least twice the detectable amount was present; Those blots which were negative are indicated by a “−”; conditions: NGF 40 ng/ml, 24 hours
Protocol: as §1, §2, §3
(§6) For RNA extraction, astrocytes were trypsinized. The astrocytes were then replated onto 100 mm PORN coated plates at a cell density of 10^6 cells per plate (10 ml growth medium). […]
as §5

NT-3 mRNA = experiment: Northern blot of neurotrophin mRNA from astrocytes: NT-3; assay type: cell-based, NIH Swiss mice; set-up: key: The conditions which produced a detectable amount of each of the neurotrophin mRNAs are indicated by a “+”; a “++” indicating that at least twice the detectable amount was present; Those blots which were negative are indicated by a “−”; conditions: NGF 40 ng/ml, 24 hours
Protocol: as §1, §2, §3, §6, §5

[1] = test system: basal forebrain cholinergic neurons; conditions: mouse NGF 25 μg/ml, Barnett et al.; cited from earlier work

NGF: nerve growth factor
Proportion of cells bearing neurites, NGF alone (PC12 cells; Methemoglobin 1 μM): 0.2 ± 0.02 | Proportion of cells bearing neurites, NGF alone (PC12 cells; Methylene Blue 5 μM): 0.24 ± 0.03 | Proportion of cells bearing neurites, NGF alone (PC12 cells; Zn Protoporphyrin IX 1 μM): 0.22 ± 0.03 | Proportion of cells bearing neurites, NGF alone (PC12 cells; no inhibitor, 48 hours): 0.2 ± 0.02 | NGF mRNA (NGF mRNA): − | FGF-2 mRNA (FGF-2 mRNA): − | BDNF mRNA (BDNF mRNA): + | NT-3 mRNA (NT-3 mRNA): − | rescue of ChAT-positive cells following the FFT lesion [1]: robust rescue effect
